According to patent publication US7271171B2, “Adenosine A3 receptor modulators” (King Pharmaceuticals Research and Development, Inc., priority 1998, dated 2007):
Like-named read-outs stand apart in the source and are kept apart here.

Columns and labels:
[1] = molecular target: T1, human recombinant A3 adenosine receptor (Homo sapiens, UniProt P0DMS8); assay: Human cloned A3 adenosine receptor binding assay, [125I]AB-MECA, HEK-293 membranes; design: USA; host or cells: HEK-293; settings: for Ki: HEK-293 membranes, [125I]AB-MECA, read-out: hA3 (Ki); for rA1/hA3 / rA2A/hA3: selectivity ratio of Ki values
T1 sequence (P0DMS8 1-318): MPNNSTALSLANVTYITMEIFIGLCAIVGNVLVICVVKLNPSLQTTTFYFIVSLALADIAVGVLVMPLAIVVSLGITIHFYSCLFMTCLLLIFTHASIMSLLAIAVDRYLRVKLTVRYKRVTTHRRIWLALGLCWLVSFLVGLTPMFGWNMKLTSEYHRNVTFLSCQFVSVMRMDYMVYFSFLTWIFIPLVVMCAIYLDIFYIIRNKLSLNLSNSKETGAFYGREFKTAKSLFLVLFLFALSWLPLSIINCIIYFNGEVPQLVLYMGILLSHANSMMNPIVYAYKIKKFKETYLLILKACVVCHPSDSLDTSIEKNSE

rA2A adenosine receptor = molecular target: T2, rA2A adenosine receptor (Rattus norvegicus, UniProt P30543); assay: Rat A2A adenosine receptor binding assay, [3H]SCH58261 displacement, rat striatum membranes
T2 construct: membranes of rat striatum (80-100 μmg of protein/assay); from tissue; host or cells: striatum of male Wistar rats
T2 sequence (P30543 whole entry): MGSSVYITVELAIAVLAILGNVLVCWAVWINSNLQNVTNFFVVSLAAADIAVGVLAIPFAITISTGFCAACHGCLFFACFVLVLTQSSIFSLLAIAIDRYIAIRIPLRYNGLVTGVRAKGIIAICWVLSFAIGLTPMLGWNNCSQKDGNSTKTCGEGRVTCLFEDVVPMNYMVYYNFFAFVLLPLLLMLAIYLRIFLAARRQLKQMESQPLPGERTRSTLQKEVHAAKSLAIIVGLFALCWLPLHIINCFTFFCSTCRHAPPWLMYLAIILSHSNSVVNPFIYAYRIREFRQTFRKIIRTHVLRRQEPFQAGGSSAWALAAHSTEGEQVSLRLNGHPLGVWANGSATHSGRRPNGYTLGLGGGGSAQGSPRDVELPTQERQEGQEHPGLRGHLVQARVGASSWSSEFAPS
Description: (§1) Male Wistar rats (200-250 g) were decapitated and the whole brain and striatum dissected on ice. […] The homogenate was centrifuged at 48,000 for 10 min, and the pellet was resuspended in the same buffer containing 2 IU/mL adenosine deaminase. After 30 min incubation at 37° C., the membranes were centrifuged and pellets were stored at −80° C. Prior to freezing, an aliquot of homogenate was removed for protein assay with bovine albumin as reference standard. Binding assays were performed on rat brain and striatum membranes respectively, in the presence of 10 mM MgCl2 at 25° C.
(§2) Separation of bound from free radio ligand was performed by rapid filtration through Whatman GF/B filters which were washed three times with ice-cold buffer. Filter bound radioactivity was measured by scintillation spectrometry after addition of 5 mL of Aquassure. […] Ki values were calculated from the Cheng-Prusoff equation. All binding data were analyzed using the nonlinear regression curve-fitting computer program LIGAND.

rA1 adenosine receptor = molecular target: T3, rA1 adenosine receptor (Rattus norvegicus, UniProt P25099); assay: Rat A1 adenosine receptor binding assay, [3H]CHA displacement, rat brain membranes
T3 construct: membranes of rat brain (150-200 μg- of protein/assay); from tissue; host or cells: whole brain of male Wistar rats
T3 sequence (P25099 1-326): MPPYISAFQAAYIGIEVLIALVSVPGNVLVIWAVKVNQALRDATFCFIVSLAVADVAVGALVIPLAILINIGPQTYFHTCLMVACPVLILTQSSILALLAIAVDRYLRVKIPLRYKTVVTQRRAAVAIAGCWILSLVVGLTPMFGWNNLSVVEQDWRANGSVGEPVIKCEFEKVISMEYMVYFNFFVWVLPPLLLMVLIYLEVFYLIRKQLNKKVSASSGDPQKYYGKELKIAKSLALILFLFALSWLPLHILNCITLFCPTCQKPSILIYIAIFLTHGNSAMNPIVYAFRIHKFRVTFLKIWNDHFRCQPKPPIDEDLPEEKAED
Description: as §1, §2

[2] = rat striatum membranes, [3H]SCH58261, read-out: rA2A (Ki)

Structure (SMILES) | Ki [1] [nM] | rA1/hA3 [1] | rA2A/hA3 [1] | Ki (rA2A adenosine receptor; [2]) [nM] | Ki (rA1 adenosine receptor) [nM] | affinity at human adenosine A3 receptor subtype (in words) ([1]; discussion of Table 1) | affinity for A2A adenosine receptors (in words) (rA2A adenosine receptor) | Ki (rA2A adenosine receptor; read-out: rA2A (Ki)) [nM] | affinity and selectivity for the A3 receptor subtype (in words) ([1]; discussion of Table 1) | Ki (rA2A adenosine receptor) [nM]
Cn1cc2c(nc(N)n3nc(-c4ccco4)nc23)n1 [Compound 34, 5-Amino-8-methyl-2-(2-furyl)-pyrazolo[4,3-e]1,2,4-triazolo[1,5-c]pyrimidine] | 557 | 0.56 | 0.05 | 30.6 | – | – | – | – | – | –
CCn1cc2c(nc(N)n3nc(-c4ccco4)nc23)n1 [Compound 35, 5-Amino-8-ethyl-2-(2-furyl)-pyrazolo[4,3-e]1,2,4-triazolo[1,5-c]pyrimidine] | 3580 | 0.03 | 0.003 | 11.2 | 95.1 | – | – | – | – | –
CCCn1cc2c(nc(N)n3nc(-c4ccco4)nc23)n1 [Compound 36, 5-Amino-8-propyl-2-(2-furyl)-pyrazolo[4,3-e]1,2,4-triazolo[1,5-c]pyrimidine] | 613 | 0.22 | 0.03 | 20.2 | 139 | – | – | – | – | –
CCCCn1cc2c(nc(N)n3nc(-c4ccco4)nc23)n1 [Compound 37, 5-Amino-8-butyl-2-(2-furyl)-pyrazolo[4,3-e]1,2,4-triazolo[1,5-c]pyrimidine] | 1110 | 0.02 | 0.003 | – | 26.3 | – | – | – | – | –
CC(C)CCn1cc2c(nc(N)n3nc(-c4ccco4)nc23)n1 [Compound 38, 5-Amino-8-isopentyl-2-(2-furyl)-pyrazolo[4,3-e]1,2,4-triazolo[1,5-c]pyrimidine] | 1160 | – | – | – | 8.09 | low affinity | – | – | – | –
CC(C)=CCn1cc2c(nc(N)n3nc(-c4ccco4)nc23)n1 [Compound 39, 5-Amino-8-(2-isopentenyl)-2-(2-furyl)-pyrazolo[4,3-e]1,2,4-triazolo[1,5-c]pyrimidine] | 887 | 0.01 | 0.001 | 1.45 | 10.1 | – | – | – | – | –
Nc1nc2nn(CCc3ccccc3)cc2c2nc(-c3ccco3)nn12 [Compound 40, 5-Amino-8-(2-(phenyl)ethyl)-2-(2-furyl)-pyrazolo[4,3-e]1,2,4-triazolo[1,5-c]pyrimidine] | 2780 | – | – | – | 2.16 | low affinity | great affinity | 0.7 | – | –
Nc1nc2nn(CCCc3ccccc3)cc2c2nc(-c3ccco3)nn12 [Compound 41, 5-Amino-8-(3-(phenyl)propyl)-2-(2-furyl)-pyrazolo[4,3-e]1,2,4-triazolo[1,5-c]pyrimidine] | 2670 | – | – | 0.59 | 11.1 | low affinity | – | – | – | –
Cn1cc2c(nc(NC(=O)Nc3cccc(Cl)c3)n3nc(-c4ccco4)nc23)n1 [Compound 42, 5-[[(3-Chlorophenyl)amino]carbonyl]amino-8-methyl-2-(2-furyl)-pyrazolo[4,3-e]1,2,4-triazolo[1,5-c]pyrimidine] | 0.22 | 22,931 | >45,454 | > 10000 | 5050 | – | – | – | – | –
COc1ccc(NC(=O)Nc2nc3nn(C)cc3c3nc(-c4ccco4)nn23)cc1 [Compound 43, 5-[[(4-Methoxyphenyl)amino]carbonyl]amino-8-methyl-2-(2-furyl)-pyrazolo[4,3-e]1,2,4-triazolo[1,5-c]pyrimidine] | 0.1 | >100,000 | >100,000 | > 10000 | > 10000 | – | – | – | – | –
CCn1cc2c(nc(NC(=O)Nc3cccc(Cl)c3)n3nc(-c4ccco4)nc23)n1 [Compound 44, 5-[[(3-Chlorophenyl)amino]carbonyl]amino-8-ethyl-2-(2-furyl)-pyrazolo[4,3-e]1,2,4-triazolo[1,5-c]pyrimidine] | 2.09 | 1,291 | 1,339 | 2800 | 2700 | – | – | – | – | –
CCn1cc2c(nc(NC(=O)Nc3ccc(OC)cc3)n3nc(-c4ccco4)nc23)n1 [Compound 45, 5-[[(4-Methoxyphenyl)amino]carbonyl]amino-8-ethyl-2-(2-furyl)-pyrazolo[4,3-e]1,2,4-triazolo[1,5-]pyrimidine] | 0.28 | >35,714 | >35,714 | – | – | – | – | – | high affinity and selectivity | –
CCCn1cc2c(nc(NC(=O)Nc3cccc(Cl)c3)n3nc(-c4ccco4)nc23)n1 [Compound 46, 5-[[(3-Chlorophenyl)amino]carbonyl]amino-8-propyl-2-(2-furyl)-pyrazolo[4,3-e]1,2,4-triazolo[1,5-c]pyrimidine] | 0.49 | 3,228 | >20,408 | < 10000 | 1580 | – | – | – | – | –
CCCn1cc2c(nc(NC(=O)Nc3ccc(OC)cc3)n3nc(-c4ccco4)nc23)n1 [Compound 47, 5-[[(4-Methoxyphenyl)amino]carbonyl]amino-8-propyl-2-(2-furyl)-pyrazolo[4,3-e]1,2,4-triazolo[1,5-c]pyrimidine] | – | – | – | – | > 10000 | – | – | – | – | –
CCCCn1cc2c(nc(NC(=O)Nc3cccc(Cl)c3)n3nc(-c4ccco4)nc23)n1 [Compound 48, 5-[[(3-Chlorophenyl)amino]carbonyl]amino-8-butyl-2-(2-furyl)-pyrazolo[4,3-e]1,2,4-triazolo[1,5-c]pyrimidine] | 0.75 | 2,020 | 664 | 498 | 1520 | – | – | – | – | –
CCCCn1cc2c(nc(NC(=O)Nc3ccc(OC)cc3)n3nc(-c4ccco4)nc23)n1 [Compound 49, 5-[[(4-Methoxyphenyl)amino]carbonyl]amino-8-butyl-2-(2-furyl)-pyrazolo[4,3-e]1,2,4-triazolo[1,5-c]pyrimidine] | 0.3 | – | – | – | 2100 | – | – | – | – | 649
CC(C)CCn1cc2c(nc(NC(=O)Nc3cccc(Cl)c3)n3nc(-c4ccco4)nc23)n1 [Compound 50, 5-[[(3-Chlorophenyl)amino]carbonyl]amino-8-isopentyl-2-(2-furyl)-pyrazolo[4,3-e]1,2,4-triazolo[1,5-c]pyrimidine] | 81.1 | 20 | 15 | 1200 | 1650 | – | – | – | – | –
COc1ccc(NC(=O)Nc2nc3nn(CCC(C)C)cc3c3nc(-c4ccco4)nn23)cc1 [Compound 51, 5-[[(4-Methoxyphenyl)amino]carbonyl]amino-8-isopentyl-2-(2-furyl)-pyrazolo[4,3-e]1,2,4-triazolo[1,5-c]pyrimidine] | 29.6 | 16 | 13 | 376 | 476 | – | – | – | – | –
CC(C)=CCn1cc2c(nc(NC(=O)Nc3cccc(Cl)c3)n3nc(-c4ccco4)nc23)n1 [Compound 52] | 147 | 25.4 | 9.8 | 1450 | 3740 | – | – | – | – | –
COc1ccc(NC(=O)Nc2nc3nn(CC=C(C)C)cc3c3nc(-c4ccco4)nn23)cc1 [Compound 53, 5-[[(4-Methoxyphenyl)amino]carbonyl]amino-8-(2-isopentenyl)-2-(2-furyl)-pyrazolo[4,3-e]1,2,4-triazolo[1,5-c]pyrimidine] | 29.6 | 179 | >338 | > 10000 | 5300 | – | – | – | – | –
